# Measured values reported in patent publication US6894075B2, “4′-demethyl-4′-O-substituted-1-deoxypodophyllotoxin derivative and geometric isomer thereof, process for the preparation thereof and anti-cancer composition comprising the same” (priority 2000, dated 2005).
# “And” between values parts separate entries of the source, which are not always exact repeats. Equal values may be shown once.
# What was measured:
# A549 cell = assay: Cytotoxicity test (SRB method) for A549 cells; format: cell-based, human; details: Homo sapiens, A549, 48 h, read-out: ED50(nM) for A549
# Outline: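 SRB assay: cells seeded 24 h at 37 °C, then exposed 48 h to samples at 0.1, 0.03, 0.01 and 0.003 mg/ml final. TCA-fixed, SRB-stained, OD read at 520 nm. Growth is calculated against time-zero and untreated controls, and ED50 is the concentration giving 50% growth inhibition, obtained by regression.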
# [1] = system: Lewis Lung Cancer Cell (LLC); assay: Anti-cancer test for BDF1 mouse transplanted by Lewis Lung Cancer Cell, Experiment 2-1 (formulae 1a, 1b); format: in vivo; details: peritoneal injection 0.06 mmole/kg/day at days 1, 2, 4, 7, 8 (etoposide 36 mg/kg), cancer volume at 14 to 16 days
# From the text: In order to evaluate the anti-cancer activity of the compounds of the present invention, LLC, which is a lung cancer cell of mouse, was transplanted into the hypodermic region of BDF1 mouse to induce a solid cancer. […] Experiment for the compounds of formulae (1a) and (1b) and that for the compound of formula (1c) were separately carried out.
# Male BDF1 mouse (Weight 18 to 25 g), being in good health and purchased from Korea Biolink Co., was used as a test animal.
# The mice were bred at a place controlled to the temperature of 23 to 24° C. while provided with water and feed ad libitum. As the feed, feed for mouse containing no antibiotics was used. The hypodermic tissue of C57BL/6 mouse, which includes cells cultured therein for 14 days, was taken up. Sterilized cold physiological saline was added to the tissue in the amount of 5 ml/g tissue to make a cell suspension. This cell suspension of 0.2 ml was transplanted into the hypodermic region of armpit of BDF1 mouse.
# (§1) Each group includes 5 mice. After 24 hours from the transplantation, each test compound of formulae (1a) and (1b) was dissolved in 4% Tween 80 and injected peritoneally in the amount of 0.2 ml and in a concentration of 0.06 mmole/kg/day (that is, 0.06 mmole of each test compound was dissolved in 10 ml of 4% Tween 80, and then 0.2 ml of the resulting solution was peritoneally injected into a mouse). Only 4% Tween 80 was injected for the negative control group, and the same moles of etoposide (36 mg/kg) was injected for the positive control group. The injection was performed five times at 1, 2, 4, 7 and 8 days from the transplantation of cancer.
# The anti-cancer effect was determined by measuring the volume of cancer of the control and test groups at 14 to 16 days from the administration of drugs and then calculated as follows. Volume of Cancer(mm^3)=Length(mm)×Width^2(mm^2)/2 Suppression Rate of Cancer Growth(%)=(C−T)×100(%)/C in which • C represents the average volume of cancer (mm^3) of the control group, and • T represents the average volume of cancer (mm^3) of the test group.
# [2] = Weight change in the period of drug administration; format: in vivo, mouse
# Protocol: as §1
# As an index of toxicity, the weight change during the period of drug administration was recorded for the compounds of formulae (1a) and (1b) compared with the comparison compound of Etoposide.
# [3] = system: mouse leukemia cell line L1210; details: L1210 transplanted into CDF1 mouse, compared with the negative control (Terada et al. 1992); cited from earlier work
smiles,measurement,setting,value
"COc1cc([C@@H]2c3cc4c(cc3C[C@H]3COC(=O)[C@@H]32)OCO4)cc(OC)c1OC [DPT, Deoxypodophyllotoxin]",EC50,A549 cell,75.5 nM
same,Suppression Rate for LLC,[1],60% and 60.2%
same,"Weight of mouse, Day 1",[2]; Day 1 from the cancer cell transplantation,23.1 g
same,"Weight of mouse, Day 2",[2]; Day 2 from the cancer cell transplantation,23.9 g
same,"Weight of mouse, Day 3",[2]; Day 3 from the cancer cell transplantation,24 g
same,"Weight of mouse, Day 4",[2]; Day 4 from the cancer cell transplantation,24 g
same,"Weight of mouse, Day 5",[2]; Day 5 from the cancer cell transplantation,24.4 g
same,"Weight of mouse, Day 6",[2]; Day 6 from the cancer cell transplantation,25 g
same,"Weight of mouse, Day 7",[2]; Day 7 from the cancer cell transplantation,25 g
same,"Weight of mouse, Day 8",[2]; Day 8 from the cancer cell transplantation,24.9 g
same,extension effect of life span,[3],about 12%
